Where a name gives a salt, the structure may show the parent alone. Read-outs that look alike come from different tables or passages of the source.
Legend:
[1] = cited from earlier work
[2] = in vivo

CNC[C@H](O)c1cccc(O)c1 [10 mg phenylephrine hydrochloride, phenylephrine hydrochloride]
Adverse Event Rate ([1]; dose 10mg, hydrochloride): 12.5%
Adverse Event Rate ([1]; dose 10mg, listed as Phenylephrine HCL, hydrochloride): 12.5%
Adverse Event Rate ([1]; dose 15mg): 43.8%
Adverse Event Rate ([1]; dose 25mg): 81.3%
Ratio (increase of AUCtot), calculation for paracetamol 650 mg ([2]; human): ~1.73
dose of phenylephrine hydrochloride alone that is similar [2]: 16 to 20 mg

— patent EP2830605B1, “A COMBINATION MEDICAMENT COMPRISING PHENYLEPHRINE AND PARACETAMOL” (priority 2013, dated 2014)
